Results from a melting point compilation (Tetko et al.; mined from patent text by program, amines drawn as free bases though some values may be those of a salt).

Row | melting point [°C] | Structure (SMILES)
1 | 151 to 152 | CC(=O)Oc1ccc(S(=O)(=O)ON=C2CCCc3ccccc32)cc1
2 | 75 to 77 | Cc1ccc(-c2cc(Cl)c3ccccc3n2)cc1
3 | 63 to 65 | CCCCCCCCCCCCSCN(O)CSCCCCCCCCCCCC
4 | 219 | CC(C)(C)[N+]([O-])=Cc1ccc(S(N)(=O)=O)cc1
5 | 51 to 53 | CCCP(=O)(CCC)COS(=O)(=O)c1c(C)cccc1Cl
6 | 197 to 200 | O=C(O)c1ncn2c1CN(C(=O)N1CCCC1)c1ccccc1-2
7 | 150 | COc1ccc(C(O)(CC(=O)N2CCOCC2)c2ccc(Cl)cc2)cc1OC (centres undefined)
8 | 181 to 185 | CC(C)C(C(=O)O)N(CCN1CCOCC1)S(=O)(=O)c1ccc(-c2ccc(NC(=O)c3cc4ccccc4o3)cc2)cc1 (centres undefined)
9 | 62 to 64 | CC(C)Oc1ccc(N2CCCNCC2)cc1
10 | 294 to 297 | O=C1NCc2c1cc1ccc3c(c1c2-c1ccc(F)cc1)OCO3
11 | 189 to 190 | CNc1nc(N)ncc1-c1ccc(Cl)cc1Cl
12 | 130 to 131 | Cn1ccnc1Sc1cc(Cl)ccc1[N+](=O)[O-]
13 | 191 to 193 | OCc1cccc(-c2ccc3nnn(Cc4ccc5ncccc5c4)c3n2)c1
14 | 113 to 115 | O=S(=O)(Nc1ccc2c(OCc3cccc(Br)c3)cccc2c1)C(F)(F)F
15 | 118 | NC(=O)NC(CS)Cc1ccccc1 (single isomer, unassigned; (+))
16 | 73 to 75 | COC(=O)Cc1ccccc1NS(C)(=O)=O
17 | 85 to 86 | CCCCCCCCCC/C=C/c1ccccc1/C=C/C(=O)O
18 | 112 to 115 | CCOC(=O)c1cnc2c(cnn2CC)c1OCC
19 | 248 to 249 | NCCc1c(C(=O)O)[nH]c2ccc(Br)cc12
20 | 100 to 102 | CC1(C)OC[C@H](CON2C(=O)c3ccccc3C2=O)O1
21 | 130 to 131 | Clc1cc(N2CCC3(CC2)OCCO3)nc(N2CCC3(CC2)OCCO3)n1
22 | 102 to 104 | COc1ccnc(CSc2nc3cscc3n2C(=O)OCc2ccccc2)c1
23 | 173 to 175 | CNc1cc(NS(=O)(=O)c2ccc(N)cc2)cc(C)n1
24 | 143 to 146 | Cc1ccc2c(c1)O[C@@H](CN1CCC(CNC(=O)c3cccnc3N)CC1)CO2
25 | 172 | Cn1cc(C#N)c(Nc2ccccc2[N+](=O)[O-])n1
26 | 141 to 142 | CC(C)c1oc(C=Cc2ccccc2)nc1C(=O)O

Row | melting point [°C] | Structure (SMILES)
27 | 109 to 111 | Cn1nc(-c2c(F)cccc2Cl)nc1-c1ccc(OCc2ccc(C(F)(F)F)cc2F)c(Cl)c1
28 | 177 to 178 | COc1ccc(S(=O)(=O)N2CCc3cccc(-c4ccco4)c32)cc1
29 | 161 to 162 | CNC(=O)N(O)CCNC(=O)c1cccc(Oc2ccccc2)c1
30 | 90 to 91 | CN(CCOc1cc(-c2ccc(O)cc2)nn1C)CCc1ccc(Cl)cc1
31 | 171 to 172 | Cc1cc(C)c(S(=O)(=O)NCC(O)(Cn2cncn2)c2ccc(Cl)cc2Cl)c(C)c1 (centres undefined)
32 | 192 to 193 | Cc1c(O)cc2c(c1C)N(C=O)CC2
33 | 189 to 192 | c1ccc2c(NCCCCNc3nccc4ccccc34)nccc2c1
34 | 245 to 247 | NS(=O)(=O)c1ccc(-c2[nH]c3ccc(Cl)cc3c2-c2ccc(Cl)cc2)cc1
35 | 100 to 101 | N#CCCN1CCC(c2[nH]cc3cc(F)ccc23)CC1
36 | 172 to 174 | CC(C)CC1(C(CCN2C(=O)c3c(F)c(F)c(F)c(F)c3C2=O)C(=O)NO)CCN(CCc2ccccc2)C1=O (centres undefined)
37 | 98 to 100 | CCCCCc1c(C(C)C)nc(C(C)C)c(CO)c1-c1ccoc1
38 | 78 to 79 | N#Cc1cccnc1N1CCN(CC(=O)Nc2ccccc2F)CC1
39 | 206 to 207 | CCN(CC)C(=O)Oc1nc(C)c2cc(OC)c(OC)cc2c1N
40 | 118 to 119 | Cc1nc(CC#N)c2c(OCc3ccccc3)cccn12
41 | 108 to 110 | COC(=O)CCCC#CCC1C(=O)CCCC1=O
42 | 165 to 167 | CCCc1[nH]c2cc(C(N)=O)ccc2c1C(=O)COC
43 | 129 to 130 | CC(NC(=O)c1sc2ccc(C(F)(F)F)cc2c1O)C(O)(c1ccccc1)c1ccccc1 (centres undefined)
44 | 142 to 143 | Cc1noc2cc3c(cc12)C1(CO3)C(=O)N(Cc2ccccn2)c2ccccc21 (centres undefined)
45 | 69 to 74 | CCCCCCCCNC(=N)NC#N
46 | 66 to 68 | COc1ccc2c(c1)C=C(C(O)C(F)(F)F)CC2 (centres undefined)
47 | 159 to 162 | O=c1ncc(Cl)cn1CC(O)CCl (centres undefined)
48 | 98 to 128 | C=CC1CCC2C3CCC4=CC(O)C=CC4(C)C3CCC12C (centres undefined)
49 | 53 to 54 | CCOC(=O)c1nc2ccccc2nc1CC
50 | 109 to 111 | NCCCc1ccc(OCCC2Oc3ccccc3N(Cc3cccc(Cl)c3)C2=O)cc1 (centres undefined)
51 | 297 | COc1ccc(-c2[nH]nc3c2C(=O)c2c(NC(=O)Cc4ccc5c(c4)OCCO5)cccc2-3)cc1
52 | 165 | COCc1c(C(=O)c2ccccc2)ncc2[nH]c3ccc(OCc4ccccc4)cc3c12

Row | melting point [°C] | Structure (SMILES)
53 | 137 to 142 | COc1ccc(S(=O)(=O)Nc2ccccc2/C=C/c2ccccn2)cc1
54 | 177 | O=C(NC[C@@H](C(=O)NO)N1CCCCC1)c1ccc(OCc2ccnc(-c3ccccc3)c2)cc1
55 | 164 to 167 | Fc1ccc(C(c2ccccc2)(c2ccccc2F)n2ccnc2)cc1 (centres undefined)
56 | 191 | CCOc1ccc(C(CC(N)=O)N2C(=O)c3ccccc3C2=O)cc1 (centres undefined)
57 | 138 to 139 | O=C(O)CCCN1C(=O)C(c2ccccc2)SC1=S (centres undefined)
58 | 42 to 43 | N#CCCCCCCCCNS(=O)(=O)c1cccc(Cl)c1
59 | 141 to 142 | C#Cc1cc(-c2cccs2)c(OC)cc1OC
60 | 50 to 52 | CN1C(=O)CC(c2ccccc2)C1C(O)Cc1cccc(Cl)c1 (centres undefined)
61 | 292 to 294 | CCOc1c(NCc2c(C)cc(C)cc2Cl)c(=O)c1=O
62 | 66 to 67 | Clc1nc(NC2CC2)nc(C2CC2)n1
63 | 91 | CCCCCCCC(=O)N(C)Cc1cccc(-c2ccc(C=CC(=O)O)c(F)c2)c1
64 | > 270 | Nc1nc(N)c(-c2ccc(Cl)cc2Cl)c(CBr)n1
65 | 151 to 152 | Cc1cc(NCCNCC(O)COc2ccccc2)c2ccccc2n1 (centres undefined)
66 | 132 to 134 | CCOC(=O)c1cnc2nn(C)cc2c1NC(C)CC (centres undefined)
67 | 164 to 165 | COc1ccc2c(c1)OCC21C(=O)N(Cc2cccnc2)c2ccccc21 (centres undefined)
68 | > 250 | O=C(O)c1[nH]c2cc(Cl)cc(Cl)c2c1C=C1CON(c2ccccc2)C1=O
69 | 124 to 126 | CCOC(=O)CCc1cc(C(=O)CCCC(=O)O)ccc1OC
70 | 195 to 197 | COc1cc(C(=O)c2[nH]c3ccccc3c2C)cc([N+](=O)[O-])c1O
71 | 34 to 37 | COC(CNC(=O)C(CS)CC(C)C)OC (centres undefined)
72 | 217 to 219 | CC(O)c1cc(F)ccc1Oc1nc2ccc(NC(=O)Nc3cccc([N+](=O)[O-])c3)cc2cc1Cc1ccccc1 (centres undefined)
73 | 180 | Cc1cc(C#N)c(N)cc1Cl
74 | 180 to 184 | COc1ccc(Cl)cc1S(=O)(=O)Nc1onc(C)c1Br
75 | 83 to 85 | COc1ccc(OCCCCCN2CCN(Sc3ccc[nH]3)CC2)cc1
76 | 67 | Cc1ccccc1-n1cc(-c2ccccc2)c(CBr)n1
77 | 158 to 159 | CC1=CC(=C(C#N)C#N)C=C(C)N1
78 | 207 to 208 | CC(C=C(N)C(=O)OCc1ccc(Cl)cc1)CP(=O)(O)O (centres undefined)

Row | melting point [°C] | Structure (SMILES)
79 | 240 to 244 | CS(=O)(=O)c1ccc(C(=O)N2CCNC2=Nc2c(Cl)cccc2Cl)cc1
80 | 255 to 256 | O=C(O)COc1ccc2c(-c3ccccn3)noc2c1Cl
81 | 247 to 248 | COc1cc(NC(=O)c2ccccc2)c(=O)[nH]c1C
82 | 106 to 109 | Cc1ccccc1C(Oc1cc(OCc2ccc3c(c2)OCO3)ccc1C#N)c1nnn[nH]1 (racemic)
83 | 101 to 102 | CCCCCCCCCCCCCCCCCCOc1cc(OCCCOc2ccc(S(C)(=O)=O)cc2)cc(C(=O)OC)c1
84 | 190 to 192 | O=C1CCC(N2Cc3cc(CNC(=O)Nc4ccc(-c5ncc[nH]5)cc4)ccc3C2=O)C(=O)N1 (centres undefined)
85 | 168 to 170 | N#Cc1ccc(C(=O)c2ccc(O)c(F)c2)cc1
86 | 164 | COC(=O)c1scc(-c2ccccc2)c1-c1ccc(S(C)=O)c(F)c1 (centres undefined)
87 | 159 to 160 | COc1ccccc1CNCc1c(-c2ccccc2)c2cc(C)c(C)cc2c(=O)n1C
88 | 80 to 85 | CCOC(=O)c1cc(=O)c2c(OCC(O)COc3ccc(CC)cc3)cccc2o1 (centres undefined)
89 | 49 to 51 | CCC1Nc2cc(F)ccc2-n2cccc21 (centres undefined)
90 | 172 | COC(=O)C(C)(N)Cc1c[nH]c2ccc(OCC3CC3)cc12 (racemic)
91 | 119 to 122 | Cc1cc2c(cc1C(=O)c1c(C(F)(F)F)ccnc1Cl)OCO2
92 | 163 to 165 | COc1cc(OC)cc(-c2ncoc2-c2ccc(OC)c(N)c2)c1
93 | 210 to 215 | CC(C)(C)C(=O)Nc1ccc(-c2nc3n(c2-c2ccc(NC(=O)C(C)(C)C)cc2)CCS3)cc1
94 | 220 | Cc1ccnc(N2CCN(CCc3c(-c4ccc(O)cc4)n4c5c(cccc35)CCC4)CC2)c1
95 | 230 to 232 | O=C(O)CCNCCn1nc(-c2c(-c3ccccc3)nn3ccccc23)ccc1=O
96 | 212 to 215 | CNS(=O)(=O)Cc1ccc(Nc2nc(Nc3ccccc3)c3cc(OC)ccc3n2)cc1
97 | 147 to 148 | CC(=O)NC(Cc1c[nH]c2ccccc12)C(=O)OC(c1ccccc1)c1ccccc1 (centres undefined)
98 | 190 | Cc1nnc(-c2ccc3ncc(-c4ccc(S(C)=O)cc4)n3c2)o1 (centres undefined)
99 | 144 to 145 | O=C(C=Cc1cccc(Br)c1)Nc1ccc(CN2CCCCC2)cc1
100 | 70 to 74 | CC(=O)C(=Cc1ccc(Br)s1)C(C)=O
101 | 235 to 237 | CCC(=O)c1cc(C(=O)O)c2cc(Cc3ccc(F)cc3)cnc2c1O
102 | 272 to 273 | O=C(Nc1nnn[nH]1)c1ccccc1[N+](=O)[O-]
103 | 66 to 69 | OCCCc1cccc2ccncc12

Row | Structure (SMILES) | melting point [°C]
104 | Cc1ccc(-c2ccnc3c(C(=O)c4cccs4)cnn23)cc1NC(=O)NC(C)C | 225 to 227
